For one compound, IC50 results are on record in patent publication US20230248717A1, “N-(3-HYDROXYPYRIDINE-2-CARBONYL)GLYCINE-BASED ANTITUMOR DRUG SENSITIZER AND APPLICATION THEREOF” (ZHEJIANG UNIVERSITY, priority 2019, published 2023).

The subject of assay [1] is HePa1-6 mouse hepatoma cells. The assay is described as follows: Cytotoxicity (MTT) in combination with DOX. It counts as cell-based. As to conditions: 48 h, sensitizer 5 μg/mL in the combination.
Procedure: (§1) CT26 cells (MC38 cells, 4T1 cells, B16FIO cells, HePa1-6 cells, H22 cells, LLC cells, MB49 cells, P388 cells, C6 cells, BXPC-3 cells, Hela cells, MDA-MB-231 cells, A2780 cells. PC3 cells. HepG2 cells, and HGC-27 cells) were cultured at 5,000 cells/well in a 96-well plate, 100 μL of a medium was added to each well, and the cells were incubated in a 37° C. constant-temperature incubator with 5% CO2 and 95% humidity for 24 h. 100 μL of different concentrations of drugs (DOX: 0.01 μg/mL to 10 μg/mL; PTX: 0.01 μg/mL to 50 μg/mL; Cela: 0.05 μg/mL to 1 μg/mL; sensitizer: 5 μg/mL) were added to each well, while 100 lit of a medium solution was added to the blank group. After culturing for 48 h, centrifugation was conducted at 1,100 rpm for 6 min, the medium in each well was discarded, 100 μL of an 11,11T working solution was added, and the culturing was continued for 3 h. Centrifugation was conducted at 3,300 rpm. for 5 min, the MITT medium in each well was discarded, 100 pt, of the DMSO was added, and the plate was shaken for 5 min to dissolve all crystals in each well. An absorbance of the sample at 562 nm was detected by a microplate reader. Each set of data was an average of three independent experimental results on the same sample.
The test system of assay [2] is MDA-MB-231 human breast cancer cells. The assay is described as follows: Cytotoxicity (MTT) in combination with DOX. The class given is cell-based. As to conditions: 48 h, sensitizer 5 μg/mL in the combination.
Procedure: as §1
Assay [3] deals with CT26 mouse colon cancer cells. The assay is described as follows: Cytotoxicity (MTT) in combination with chemotherapeutic drugs.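 Also: MTT read-out taken as absorbance at 562 nm after a 3 h dye incubation, medium-only wells as blank, values averaged over three independent experiments.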 The note with it: Mus musculus, CT26, 48 h.
Procedure: as §1
The test system of assay [4] is BXPC-3 human pancreatic cancer cells. The assay is described as follows: Cytotoxicity (MTT) in combination with DOX. It counts as cell-based. As to conditions: 48 h, sensitizer 5 μg/mL in the combination.
Procedure: as §1
The subject of assay [5] is HepG2 human hepatoma cells. The assay is described as follows: Cytotoxicity (MTT) in combination with DOX. It counts as cell-based. As to conditions: 48 h, sensitizer 5 μg/mL in the combination.
Procedure: as §1
The test system of assay [6] is H22 mouse hepatoma cells. The assay is described as follows: Cytotoxicity (MTT) in combination with DOX. It counts as cell-based. The note with it: 48 h, sensitizer 5 μg/mL in the combination.
Procedure: as §1
Assay [7] relates to PC3 human prostate cancer cells. The assay is described as follows: Cytotoxicity (MTT) in combination with DOX. It counts as cell-based. As to conditions: 48 h, sensitizer 5 μg/mL in the combination.
Procedure: as §1
The test system of assay [8] is B16F10 mouse melanoma cells. The assay is described as follows: Cytotoxicity (MTT) in combination with DOX. As to conditions: B16-F10, 48 h, sensitizer 5 μg/mL in the combination. The class given is cell-based.
Procedure: as §1
The test system of assay [9] is 4T1 mouse breast cancer cells. The assay is described as follows: Cytotoxicity (MTT) in combination with DOX. It counts as cell-based. As to conditions: 48 h, sensitizer 5 μg/mL in the combination.
Procedure: as §1
Assay [10] relates to MB49 mouse bladder cancer cells. The assay is described as follows: Cytotoxicity (MTT) in combination with DOX. The class given is cell-based. The note with it: 48 h, sensitizer 5 μg/mL in the combination.
Procedure: as §1
The subject of assay [11] is A2780 Human ovarian cancer cells. The assay is described as follows: Cytotoxicity (MTT) in combination with DOX. It counts as cell-based. The note with it: 48 h, sensitizer 5 μg/mL in the combination.
Procedure: as §1
For assay [12], the system named is Hela human cervical cancer cells. The assay is described as follows: Cytotoxicity (MTT) in combination with DOX. It counts as cell-based. As to conditions: 48 h, sensitizer 5 μg/mL in the combination.
Procedure: as §1
Assay [13] deals with MC38 mouse colon cancer cells. The assay is described as follows: Cytotoxicity (MTT) in combination with DOX. The class given is cell-based. As to conditions: MC-38, 48 h, sensitizer 5 μg/mL in the combination.
Procedure: as §1
The test system of assay [14] is LLC mouse lung cancer cells. The assay is described as follows: Cytotoxicity (MTT) in combination with DOX. It counts as cell-based. The note with it: 48 h, sensitizer 5 μg/mL in the combination.
Procedure: as §1
Assay [15] concerns C6 rat glioma cells. The assay is described as follows: Cytotoxicity (MTT) in combination with DOX. The class given is cell-based. As to conditions: Glioma cell, 48 h, sensitizer 5 μg/mL in the combination.
Procedure: as §1
The subject of assay [16] is HGC-27 human gastric cancer cells. The assay is described as follows: Cytotoxicity (MTT) in combination with DOX. The class given is cell-based. As to conditions: 48 h, sensitizer 5 μg/mL in the combination.
Procedure: as §1
The subject of assay [17] is P388 mouse lymphoma cells. The assay is described as follows: Cytotoxicity (MTT) in combination with DOX. It counts as cell-based. The note with it: 48 h, sensitizer 5 μg/mL in the combination.
Procedure: as §1

What is called IC50 is the concentration needed to halve the response being measured. For the compound `COc1cccc2c1C(=O)c1c(O)c3c(c(O)c1C2=O)C[C@@](O)(C(=O)CO)C[C@@H]3O[C@H]1C[C@H](N)[C@H](O)[C@H](C)O1` [DOX, doxorubicin], the IC50 in [1] stood at 1.35 ± 0.331 µg/mL; in [2] it was 3.57 ± 0.153 µg/mL; in assay [3] it was 0.256 ± 0.017 µg/mL; in assay [4] it was 14.2 ± 1.68 µg/mL; in assay [5], 3.45 ± 0.778 µg/mL; in [6] it was 5.13 ± 0.119 µg/mL. For the same compound, the half-inhibitory concentration (IC50) was 2.32 ± 0.195 µg/mL in [7]; 0.214 ± 0.011 µg/mL in assay [8]; 1.76 ± 0.221 µg/mL in assay [9]; 0.447 ± 0.022 µg/mL in assay [10]; 10.1 ± 1.24 µg/mL in assay [11]; 2.77 ± 0.492 µg/mL in [12]. Besides, the concentration for half-maximal inhibition (IC50) stood at 0.411 ± 0.017 µg/mL in assay [13]; 0.088 ± 0.007 µg/mL in [14]; 0.119 ± 0.026 µg/mL in assay [15]; 1.82 ± 0.227 µg/mL in [16]; 0.197 ± 0.029 µg/mL in assay [17].
